In patent US20240217930A1 (priority 2021, published 2024):

Target: SARS-CoV-2 Mpro (Severe acute respiratory syndrome coronavirus 2, UniProt P0DTD1)
Experiment: SARS-CoV-2 Mpro FRET-based enzyme assay
Type: biochemical
Settings: 5 nM Mpro, 25 μM FRET substrate, 20 min preincubation at room temperature; mean n=2; read-out: SARS-CoV-2 Mpro enzyme pKi assay pKi (converted)

| Structure (SMILES) | Ki |
| --- | --- |
| CC(C)C(=O)N[C@@H](CC1CC1)C(=O)N1C[C@H]2[C@@H]([C@H]1C(=O)NC(CC1CC1)C(=O)C(N)=O)C2(C)C (stereo partly drawn) [Example 6, (1 R,2S,5S)—N-(4-Amino-1-cyclopropyl-3,4-dioxobutan-2-yl)-3-((S)-3-cyclopropyl-2-isobutyramidopropanoyl)-6,6-dimethyl-3-azabicyclo[3.1.0]hexane-2-carboxamide] | 200 nM |
| CC(C)C(=O)NC(C(=O)N1C[C@H]2[C@@H]([C@H]1C(=O)NC(CC1CC1)C(=O)C(N)=O)C2(C)C)C1CCOC1 (stereo partly drawn) [Example 30, (1 R,2S,5S)—N-(4-Amino-1-cyclopropyl-3,4-dioxobutan-2-yl)-3-(2-isobutyramido-2-(tetrahydrofuran-3-yl)acetyl)-6,6-dimethyl-3-azabicyclo[3.1.0]hexane-2-carboxamide] | 158 nM |
| CC1(C)[C@@H]2[C@@H](C(=O)NC(CC3CC3)C(=O)C(N)=O)N(C(=O)[C@@H](NC(=O)C3CC3)C3CC3)C[C@@H]21 (stereo partly drawn) [Example 9, (1 R,2S,5S)—N-(4-Amino-1-cyclopropyl-3,4-dioxobutan-2-yl)-3-((S)-2-(cyclopropanecarboxamido)-2-cyclopropylacetyl)-6,6-dimethyl-3-azabicyclo[3.1.0]hexane-2-carboxamide] | 316 nM |
| C=CC(=O)N[C@H](C(=O)N1C[C@H]2[C@@H]([C@H]1C(=O)NC(CC1CC1)C(=O)C(N)=O)C2(C)C)C(C)(C)C (stereo partly drawn) [Example 15, (1 R,2S,5S)-3-((S)-2-Acrylamido-3,3-dimethylbutanoyl)-N-(4-amino-1-cyclopropyl-3,4-dioxobutan-2-yl)-6,6-dimethyl-3-azabicyclo[3.1.0]hexane-2-carboxamide] | 3.98 nM |
| CC(C)(C)[C@H](NC(=O)C1CC1)C(=O)N1C[C@H]2[C@@H]([C@H]1C(=O)NC(CC1CC1)C(=O)C(N)=O)C2(C)C (stereo partly drawn) [Example 14, (1 R,2S,5S)—N-(4-Amino-1-cyclopropyl-3,4-dioxobutan-2-yl)-3-((S)-2-(cyclopropanecarboxamido)-3,3-dimethylbutanoyl)-6,6-dimethyl-3-azabicyclo[3.1.0]hexane-2-carboxamide] | 15.8 nM |
| CC(C)C(=O)N[C@H](C(=O)N1C[C@H]2[C@@H]([C@H]1C(=O)NC(C[C@H]1C[C@@H]1C)C(=O)C(N)=O)C2(C)C)C(C)C (stereo partly drawn) [Example 5, (1 R,2S,5S)—N-(4-Amino-1-((1 R,2S)-2-methylcyclopropyl)-3,4-dioxobutan-2-yl)-3-(isobutyryl-L-valyl)-6,6-dimethyl-3-azabicyclo[3.1.0]hexane-2-carboxamide] | 158 nM |
| CC(C)C(=O)NC(C(=O)N1C[C@H]2[C@@H]([C@H]1C(=O)NC(CC1CC1)C(=O)C(N)=O)C2(C)C)C1COC1 (stereo partly drawn) [Example 13, (1 R,2S,5S)—N-(4-Amino-1-cyclopropyl-3,4-dioxobutan-2-yl)-3-(2-isobutyramido-2-(oxetan-3-yl)acetyl)-6,6-dimethyl-3-azabicyclo[3.1.0]hexane-2-carboxamide] | 316 nM |
| C=CC(=O)N[C@H](C(=O)N1C[C@H]2[C@@H]([C@H]1C(=O)NC(CC1CC1)C(=O)C(N)=O)C2(C)C)C(C)C (stereo partly drawn) [Example 4, (1 R,2S,5S)-3-(Acryloyl-L-valyl)-N-(4-amino-1-cyclopropyl-3,4-dioxobutan-2-yl)-6,6-dimethyl-3-azabicyclo[3.1.0]hexane-2-carboxamide] | 50.1 nM |
| CC[C@@H](C)[C@H](NC(=O)C(C)C)C(=O)N1C[C@H]2[C@@H]([C@H]1C(=O)NC(CC1CC1)C(=O)C(N)=O)C2(C)C (stereo partly drawn) [Example 3, (1R,2S,5S)—N-(4-Amino-1-cyclopropyl-3,4-dioxobutan-2-yl)-3-(isobutyryl-L-alloisoleucyl)-6,6-dimethyl-3-azabicyclo[3.1.0]hexane-2-carboxamide] | 79.4 nM |
| CC(C)(C)[C@H](NC(=O)C(C(F)(F)F)C(F)(F)F)C(=O)N1C[C@H]2[C@@H]([C@H]1C(=O)NC(CC1CC1)C(=O)C(N)=O)C2(C)C (stereo partly drawn) [Example 33, (1 R,2S,5S)—N-(4-Amino-1-cyclopropyl-3,4-dioxobutan-2-yl)-3-((S)-3,3-dimethyl-2-(3,3,3-trifluoro-2-(trifluoromethyl)propanamido)butanoyl)-6,6-dimethyl-3-azabicyclo[3.1.0]hexane-2-carboxamide] | 158 nM |
| CC(C)[C@H](NC(=O)C1CC1)C(=O)N1C[C@H]2[C@@H]([C@H]1C(=O)NC(CC1CC1)C(=O)C(N)=O)C2(C)C (stereo partly drawn) [Example 2, (1 R,2S,5S)—N-[3-Amino-1-(cyclopropylmethyl)-2,3-dioxo-propyl]-3-[(2S)-2-(cyclopropanecarbonylamino)-3-methylbutanoyl]-6,6-dimethyl-3-azabicyclo[3.1.0]hexane-2-carboxamide] | 50.1 nM |
| CC(C)[C@H](NC(=O)C1CC1)C(=O)N1C[C@H]2[C@@H]([C@H]1C(=O)NC(CC1CC1)C(=O)C(=O)NC1CC1)C2(C)C (stereo partly drawn) [Example 29, (1 R,2S,5S)-3-((Cyclopropanecarbonyl)-L-valyl)-N-(1-cyclopropyl-4-(cyclopropylamino)-3,4-dioxobutan-2-yl)-6,6-dimethyl-3-azabicyclo[3.1.0]hexane-2-carboxamide] | 251 nM |
| CC(C)(C)[C@H](NC(=O)C1CC1)C(=O)N1C[C@H]2[C@@H]([C@H]1C(=O)NC(CC1CC1)C(=O)C(=O)NC1CC1)C2(C)C (stereo partly drawn) [Example 19, (1 R,2S,5S)-3-((S)-2-(Cyclopropanecarboxamido)-3,3-dimethylbutanoyl)-N-(1-cyclopropyl-4-(cyclopropylamino)-3,4-dioxobutan-2-yl)-6,6-dimethyl-3-azabicyclo[3.1.0]hexane-2-carboxamide] | 50.1 nM |
| CNC(=O)C(=O)C(CC1CC1)NC(=O)[C@@H]1[C@@H]2[C@H](CN1C(=O)[C@@H](NC(=O)C(C)C)C(C)(C)C)C2(C)C (stereo partly drawn) [Example 22, (1 R,2S,5S)—N-(1-Cyclopropyl-4-(methylamino)-3,4-dioxobutan-2-yl)-3-((S)-2-isobutyramido-3,3-dimethylbutanoyl)-6,6-dimethyl-3-azabicyclo[3.1.0]hexane-2-carboxamide] | 15.8 nM |
| CC(C)C(=O)N[C@H](C(=O)N1C[C@H]2[C@@H]([C@H]1C(=O)NC(CC1CC1)C(=O)C(N)=O)C2(C)C)C1CCC1 (stereo partly drawn) [Example 25, (1 R,2S,5S)—N-(4-Amino-1-cyclopropyl-3,4-dioxobutan-2-yl)-3-((S)-2-cyclobutyl-2-isobutyramidoacetyl)-6,6-dimethyl-3-azabicyclo[3.1.0]hexane-2-carboxamide] | 251 nM |
| CC(C)(C)[C@H](NC(=O)C1CC1)C(=O)N1C[C@H]2[C@@H]([C@H]1C(=O)NC(CC1CC1)C(=O)C(=O)NCc1ccccc1)C2(C)C (stereo partly drawn) [Example 18, (1 R,2S,5S)—N-(4-(Benzylamino)-1-cyclopropyl-3,4-dioxobutan-2-yl)-3-((S)-2-(cyclopropanecarboxamido)-3,3-dimethylbutanoyl)-6,6-dimethyl-3-azabicyclo[3.1.0]hexane-2-carboxamide] | 50.1 nM |
| CC(C)C(=O)N[C@H](C(=O)N1C[C@H]2[C@@H]([C@H]1C(=O)NC(CC1CC1)C(=O)C(=O)N(C)C)C2(C)C)C(C)(C)C (stereo partly drawn) [Example 23, (1 R,2S,5S)—N-(1-Cyclopropyl-4-(dimethylamino)-3,4-dioxobutan-2-yl)-3-((S)-2-isobutyramido-3,3-dimethylbutanoyl)-6,6-dimethyl-3-azabicyclo[3.1.0]hexane-2-carboxamide] | > 5010 nM |
| CC(C)C(=O)N[C@H](C(=O)N1C[C@H]2[C@@H]([C@H]1C(=O)NC(C#N)CC1CC1)C2(C)C)C(C)(C)C (stereo partly drawn) [Example 27, (1 R,2S,5S)—N-(1-Cyano-2-cyclopropylethyl)-3-((S)-2-isobutyramido-3,3-dimethylbutanoyl)-6,6-dimethyl-3-azabicyclo[3.1.0]hexane-2-carboxamide] | > 5010 nM |
| CC(C)C(=O)N[C@H](C(=O)N1C[C@H]2[C@@H]([C@H]1C(=O)NC(CC1CC1)C(=O)C(=O)N[C@H]1CC1(C)C)C2(C)C)C(C)(C)C (stereo partly drawn) [Example 31, (1 R,2S,5S)—N-(1-Cyclopropyl-4-(((S)-2,2-dimethylcyclopropyl)amino)-3,4-dioxobutan-2-yl)-3-((S)-2-isobutyramido-3,3-dimethylbutanoyl)-6,6-dimethyl-3-azabicyclo[3.1.0]hexane-2-carboxamide] | 100 nM |
| CC(C)C(=O)N[C@H](C(=O)N1C[C@H]2[C@@H]([C@H]1C(=O)NC(CC1CC1)C(=O)C(N)=O)C2(C)C)C(C)(C)C (stereo partly drawn) [Example 1, (1 R,2S,5S)—N-(4-Amino-1-cyclopropyl-3,4-dioxobutan-2-yl)-3-((S)-2-isobutyramido-3,3-dimethylbutanoyl)-6,6-dimethyl-3-azabicyclo[3.1.0]hexane-2-carboxamide] | 15.8 nM |
| CC(C)C(=O)N[C@H](C(=O)N1C[C@H]2[C@@H]([C@H]1C(=O)NC(CC1CC1)C(=O)C(N)=O)C2(C)C)C1CC1 (stereo partly drawn) [Example 10, (1 R,2S,5S)—N-(4-Amino-1-cyclopropyl-3,4-dioxobutan-2-yl)-3-((S)-2-cyclopropyl-2-isobutyramidoacetyl)-6,6-dimethyl-3-azabicyclo[3.1.0]hexane-2-carboxamide] | 316 nM |
| CC(C)C(=O)N[C@H](C(=O)N1C[C@H]2[C@@H]([C@H]1C(=O)NC(CC1CC1)C(=O)C(N)=O)C2(C)C)C(C)C (stereo partly drawn) [Example 7, (1 R,2S,5S)—N-(4-Amino-1-cyclopropyl-3,4-dioxobutan-2-yl)-3-(isobutyryl-L-valyl)-6,6-dimethyl-3-azabicyclo[3.1.0]hexane-2-carboxamide] | 200 nM |
